Measured values published in PubChem BioAssay (NCI).
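A five-concentration, 48-hour dose response in 96-well plates underlies each endpoint, interpolated linearly between surrounding concentrations. TGI is the concentration that stops growth completely.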

Assays:
Assay in all cases: inhibition of tumour cell growth, NCI panel, 48 h
[1] = test system: SNB-75 CNS
[2] = test system: 786-0 renal
[3] = test system: K-562 leukemia
[4] = test system: OVCAR-3 ovarian
[5] = test system: A549 NSCLC
[6] = test system: SK-MEL-28 melanoma
[7] = test system: HT29 colon
[8] = test system: A498 renal
[9] = test system: ACHN renal
[10] = test system: SF-295 CNS
[11] = test system: NCI-H522 lung
[12] = test system: SN12C renal
[13] = test system: EKVX NSCLC
[14] = test system: LXFL 529 NSCLC
[15] = test system: UACC-62 melanoma
[16] = test system: SNB-19 CNS
[17] = test system: TK-10 renal
[18] = test system: COLO 205 colon
[19] = test system: NCI-H460 lung
[20] = test system: RXF 393 renal
[21] = test system: DLD-1 colon
[22] = test system: OVCAR-4 ovarian
[23] = test system: NCI-H23 lung
[24] = test system: U251 CNS
[25] = test system: SK-OV-3 ovarian
[26] = test system: SK-MEL-2 melanoma
[27] = test system: OVCAR-8 ovarian
[28] = test system: DMS 273 small cell lung
[29] = test system: NCI-H226 lung
[30] = test system: SK-MEL-5 melanoma
[31] = test system: UACC-257 melanoma
[32] = test system: OVCAR-5 ovarian
[33] = test system: LOX IMVI melanoma
[34] = test system: IGROV1 ovarian
[35] = test system: UO-31 renal
[36] = test system: SF-268 CNS
[37] = test system: KM20L2 colon
[38] = test system: SW-620 colon
[39] = test system: HOP-62 NSCLC
[40] = test system: M14 melanoma
[41] = test system: CAKI-1 renal
[42] = test system: SF-539 CNS
[43] = test system: HOP-92 NSCLC
[44] = test system: HCT-116 colon
[45] = test system: HL-60(TB) leukemia
[46] = test system: CCRF-CEM leukemia
[47] = test system: HCT-15 colon
[48] = test system: XF 498 CNS
[49] = test system: MALME-3M melanoma
[50] = test system: RPMI-8226 leukemia
[51] = test system: KM12 colon
[52] = test system: SR leukemia
[53] = test system: PC-3 prostate
[54] = test system: MDA-MB-435
[55] = test system: MDA-N
[56] = test system: HCC-2998 colon
[57] = test system: T-47D breast
[58] = test system: DU-145 prostate
[59] = test system: MDA-MB-231 breast
[60] = test system: BT-549 breast
[61] = test system: NCI/ADR-RES ovarian
[62] = test system: HS 578T breast
[63] = test system: MOLT-4 leukemia
[64] = test system: MCF7 breast

`CC(=O)Nc1ccc(C(=O)NN2C(=O)C(Cl)C2c2ccccc2O)cc1` (stereo not drawn) gave a TGI [1] of 78.9 µM, a TGI [2] greater than 100 µM and a TGI [3] greater than 100 µM. It also gave a TGI [4] of 90.3 µM, a TGI [5] greater than 100 µM and a TGI [6] greater than 100 µM. For the same molecule, the TGI [7] was greater than 100 µM, the TGI [8] was greater than 100 µM and the TGI [9] was greater than 100 µM. For the same molecule, the TGI [10] was greater than 100 µM, the TGI [11] was greater than 100 µM and the TGI [12] was greater than 100 µM. For the same molecule, the TGI [13] was greater than 100 µM, the TGI [14] was greater than 100 µM and the TGI [15] was greater than 100 µM. The TGI [16] was greater than 100 µM, the TGI [17] was greater than 100 µM and the TGI [18] was greater than 100 µM. The TGI [19] was greater than 100 µM, the TGI [20] was 61 µM and the TGI [21] was greater than 100 µM. For the same molecule, the TGI [22] was greater than 100 µM, the TGI [23] was 78.3 µM and the TGI [24] was greater than 100 µM. The TGI [25] was greater than 100 µM, the TGI [26] was greater than 100 µM and the TGI [27] was greater than 100 µM. It also gave a TGI [28] greater than 100 µM, a TGI [29] greater than 100 µM and a TGI [30] greater than 100 µM. The TGI [31] was greater than 100 µM, the TGI [32] was greater than 100 µM and the TGI [33] was 48.9 µM. The TGI [34] was greater than 100 µM, the TGI [35] was greater than 100 µM and the TGI [36] was greater than 100 µM. The TGI [37] was greater than 100 µM, the TGI [38] was greater than 100 µM and the TGI [39] was 41.6 µM. It also gave a TGI [40] greater than 100 µM, a TGI [41] greater than 100 µM and a TGI [42] greater than 100 µM. The TGI [43] was greater than 100 µM, the TGI [44] was greater than 100 µM and the TGI [45] was greater than 100 µM. For the same molecule, the TGI [46] was greater than 100 µM, the TGI [47] was greater than 100 µM and the TGI [48] was greater than 100 µM. For the same molecule, the TGI [49] was greater than 100 µM.

In the case of `COC(=O)[C@@H]1C[C@H]([Se]c2ccccc2)CN1C(=O)OCc1ccccc1`, the TGI [1] was greater than 100 µM, the TGI [50] was 71.8 µM and the TGI [2] was greater than 100 µM. For the same molecule, the TGI [3] was greater than 100 µM, the TGI [4] was 67.1 µM and the TGI [5] was greater than 100 µM. It also gave a TGI [6] of 69.2 µM, a TGI [7] of 70.4 µM and a TGI [8] greater than 100 µM. The TGI [51] was greater than 100 µM, the TGI [9] was greater than 100 µM and the TGI [10] was greater than 100 µM. It also gave a TGI [52] greater than 100 µM, a TGI [11] greater than 100 µM and a TGI [53] greater than 100 µM. It also gave a TGI [12] greater than 100 µM, a TGI [54] of 65 µM and a TGI [13] greater than 100 µM. For the same molecule, the TGI [15] was 35.8 µM, the TGI [16] was greater than 100 µM and the TGI [17] was greater than 100 µM. The TGI [18] was 54.5 µM, the TGI [19] was 86.1 µM and the TGI [20] was 84.3 µM. It also gave a TGI [22] greater than 100 µM, a TGI [23] of 99.2 µM and a TGI [55] of 68.2 µM. It also gave a TGI [56] greater than 100 µM, a TGI [24] greater than 100 µM and a TGI [25] greater than 100 µM. It also gave a TGI [26] of 42.2 µM, a TGI [27] greater than 100 µM and a TGI [29] greater than 100 µM. It also gave a TGI [30] of 30.6 µM, a TGI [57] greater than 100 µM and a TGI [58] greater than 100 µM. The TGI [31] was greater than 100 µM, the TGI [59] was greater than 100 µM and the TGI [32] was greater than 100 µM. The TGI [33] was 26.5 µM, the TGI [34] was greater than 100 µM and the TGI [60] was 60.7 µM. The TGI [61] was greater than 100 µM, the TGI [35] was 95.3 µM and the TGI [36] was greater than 100 µM. It also gave a TGI [62] greater than 100 µM, a TGI [38] greater than 100 µM and a TGI [39] greater than 100 µM. It also gave a TGI [63] of 66.8 µM, a TGI [40] greater than 100 µM and a TGI [41] greater than 100 µM. It also gave a TGI [42] greater than 100 µM, a TGI [64] of 41.5 µM and a TGI [43] greater than 100 µM. It also gave a TGI [44] greater than 100 µM, a TGI [45] of 66 µM and a TGI [46] greater than 100 µM. It also gave a TGI [47] greater than 100 µM and a TGI [49] of 77.2 µM.
